Series [1] can be described thus: Whole blood stability assay. As to conditions: fresh whole blood, drug final concentration 1 μM, 37° C., 180 minutes. It counts as in vitro ADME. On the procedure: Whole Blood Stability Assay
A whole blood stability assay was performed using fresh blood with a drug final concentration of 1 μM. The drug-blood mixtures were incubated at 37° C. for 180 minutes.

Series [2] deals with T1, K-Ras G12C (Homo sapiens (Human), UniProt P01116, G12C). The series can be described thus: Western blot assay for in cell alkylation of K-Ras G12C (HCC1171 cells). It counts as cell-based. As to conditions: 18 hours at 37° C., 7 point dose response. On the procedure:
HCC1171 cells were maintained in RPMI1640 supplemented with 10% FBS. Cells were plated in a 96-well plate at 20,000 cells/well and the following day compounds were added to the cells. After 18 hours at 37° C., cells were lysed in RIPA buffer (Sigma RO278) with 0.5% SDS and protease/phosphatase inhibitor cocktail. After through mixing to enable complete lysis, the lysates were cleared by centrifugation before 20 µl was transferred from each well and combined with loading buffer and reducing agent. After heating for 10 minutes at 95° C., […] of each sample was loaded onto a 4-20% Tris-Glycine gel and electrophoresed at 110V for 165 minutes in SDS-PAGE running buffer. Gels were transferred to a nitrocellulose membrane, blocked for 1 hour and stained overnight at 4° C. with primary antibody against K-Ras (polyclonal Proteintech 12063-1-AP). The membrane was then washed thoroughly and counterstained with anti-rabbit IRDye 800CW (LI-COR 926-32211) for one hour at room temperature. After final washes, the membrane was imaged on a LI-COR Odyssey CLx at medium resolution. […] To quantify this affect, the LICOR software was used to draw a rectangle over alkylated and unalkylated bands for each well and measured the total fluorescent intensity (FI) in each of these bands. The following formula was then used to calculate % alkylation: FI(alkylated)/(FI(alkylated)+FI(unalkylated))*100 for each well.
A 7 point dose response curve was used to determine the IC50 for each compound. Cell alkylation data are presented below in Table 3.
A general note: In western blotting, separated proteins are transferred to a membrane and probed.
Target sequence in this assay (P01116 other isoform, or with tags, fused parts or gaps G12C): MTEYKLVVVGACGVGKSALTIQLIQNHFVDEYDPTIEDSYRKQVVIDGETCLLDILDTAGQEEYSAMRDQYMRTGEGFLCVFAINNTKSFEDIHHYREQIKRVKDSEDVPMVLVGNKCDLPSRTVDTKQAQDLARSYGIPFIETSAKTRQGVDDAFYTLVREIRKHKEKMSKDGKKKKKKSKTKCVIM

Series [3] concerns the target T1, K-Ras G12C. Briefly: K-Ras G12C, SOS1, Raf RBD HTRF assay for inhibition of GTP exchange. It counts as biochemical. Particulars: 18 hours incubation with K-Ras G12C at room temperature, SOS1-mediated GTP exchange. Here is the method:
K-Ras G12C, SOS1, Raf RBD Homogeneous Time Resolved Fluorescence (HTRF) Assay for Inhibition of GTP Exchange
After 18 hours at room temperature, the SOS1 GTP exchange factor (1.67 nM during exchange, 1.25 nM final) was added to initiate nucleotide exchange to GTP (200 μM during exchange, 150 µM final). The level of GTP exchange was assessed by addition of a Ras binding domain derived from C-Raf and the HTRF detection antibodies Tb-anti-FLAG and D2-anti-his (Cis-Bio) at 50 nM, 1 nM and 12.5 nM, respectively. After 2 hours, the ratio of 665 nm to 615 nm emission with 320 nm excitation was measured on an Envision plate reader (Perkin Elmer).
The final reaction volume was 20l in a ProxiPlate-384F Plus (Perkin Elmer), in buffer containing 20 mM HEPES, 150 mM NaCl, 1 mM MgCl2, 0.1% BSA, 0.03% Tween-20 and 1 mM DTT. […] HTRF data are presented below in Table 3.
Target sequence in this assay (P01116 other isoform, or with tags, fused parts or gaps G12C): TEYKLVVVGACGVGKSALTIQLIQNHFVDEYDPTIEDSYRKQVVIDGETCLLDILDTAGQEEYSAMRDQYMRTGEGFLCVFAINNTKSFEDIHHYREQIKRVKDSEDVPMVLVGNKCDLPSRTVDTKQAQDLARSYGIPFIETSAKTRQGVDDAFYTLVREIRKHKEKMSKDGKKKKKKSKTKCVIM

Structures are written as SMILES.

One may read the half-life as the time needed for the level to fall by half in the phase considered. A higher half-life goes with slow loss. The term EC50 denotes the concentration giving half of the maximal effect. As usually defined, the IC50 is the concentration needed to halve the response being measured. A low value points to greater potency in that assay.

The compound `C=CC(=O)N1CCN(c2ncnc3c(F)c(-c4nc(N)cc(C)c4C(F)(F)F)c(Cl)cc23)[C@@H](C)C1` [Example 19, 1-((3S)-4-(7-(6-amino-4-methyl-3-(trifluoromethyl)pyridin-2-yl)-6-chloro-8-fluoroquinazolin-4-yl)-3-methylpiperazin-1-yl)prop-2-en-1-one] yielded a half-life at 1 μM in series [1] of 2.67 h.
As to `C=CC(=O)N1CCN(c2ncnc3cc(-c4nc(N)ccc4C(F)(F)F)c(S(C)(=O)=O)cc23)CC1` [Example 28, 1-[4-[7-[6-amino-3-(trifluoromethyl)-2-pyridyl]-6-methylsulfonyl-quinazolin-4-yl]piperazin-1-yl]prop-2-en-1-one], the EC50 at K-Ras G12C [2] turned out to be 7.8 µM. At K-Ras G12C [3], this compound showed an IC50 of 0.54 µM.
Taken in the same sequence, the figures for `C=CC(=O)N1CCN(c2ncnc3cc(-c4nc(N)cc5cccc(F)c45)c(Cl)cc23)CC1` [Example 48, 1-[4-[7-(3-amino-8-fluoroisoquinoline-1-yl)-6-chloroquinazolin-4-yl]piperazin-1-yl]prop-2-en-1-one] were 0.14 µM and 0.032 µM.
Take `C=CC(=O)N1CCN(c2nc(OC[C@@H]3CCCN3C)nc3cc(-c4nc(N)cc(C)c4C(F)(F)F)c(Cl)cc23)[C@@H](C)C1` [Example 61, 1-((S)-4-(7-(6-amino-4-methyl-3-(trifluoromethyl)pyridin-2-yl)-6-chloro-2-(((S)-1-methylpyrrolidin-2-yl)methoxy)quinazolin-4-yl)-3-methylpiperazin-1-yl)prop-2-en-1-one]: the concentration for a half-maximal effect (EC50) at K-Ras G12C [2] was 0.002 µM. For the same compound, the half-life at 1 μM in series [1] is 2.67 h.
Taken in the same sequence, the figures for `Cc1cc(N)nc(-c2cc3nc(OC[C@@H]4CCCN4C)nc(N4CCN(C(=O)/C=C/C(F)F)C[C@@H]4C)c3cc2Cl)c1C(F)(F)F` [Example 65, (E)-1-((S)-4-(7-(6-amino-4-methyl-3-(trifluoromethyl)pyridin-2-yl)-6-chloro-2-(((S)-1-methylpyrrolidin-2-yl)methoxy)quinazolin-4-yl)-3-methylpiperazin-1-yl)-4,4-difluorobut-2-en-1-one] were 0.0076 µM and 0.617 h.
As for `C=CC(=O)N1CCN(c2nc(OC[C@@H]3C[C@@H](F)CN3C)nc3c(F)c(-c4nc(N)cc(C)c4C(F)(F)F)c(Cl)cc23)[C@@H](C)C1` [Example 69, 1-[(3S)-4-[7-[6-amino-4-methyl-3-(trifluoromethyl)-2-pyridyl]-6-chloro-8-fluoro-2-[[(2S,4R)-4-fluoro-1-methyl-pyrrolidin-2-yl]methoxy]quinazolin-4-yl]-3-methyl-piperazin-1-yl]prop-2-en-1-one], on K-Ras G12C [2], the EC50 is 0.001 µM. In series [1], the half-life at 1 μM was above 9 h.
On the same counts, the results for `C=CC(=O)N1CCN(c2nc(OC[C@@H]3CCCN3C)nc3cc(-c4nc(N)ccc4C(F)(F)F)c(Cl)cc23)CC1` [Example 70, (S)-1-(4-(7-(6-amino-3-(trifluoromethyl)pyridin-2-yl)-6-chloro-2-((1-methylpyrrolidin-2-yl)methoxy)quinazolin-4-yl)piperazin-1-yl)prop-2-en-1-one] are 0.019 µM and 1.02 h.
The compound `C=CC(=O)N1CCN(c2nc(OC[C@@H]3C[C@@H](OCC)CN3C)nc3cc(-c4nc(N)ccc4C(F)(F)F)c(Cl)cc23)CC1` [Example 71, 1-(4-(7-(6-amino-3-(trifluoromethyl)pyridin-2-yl)-6-chloro-2-(((2S,4R)-4-ethoxy-1-methylpyrrolidin-2-yl)methoxy)quinazolin-4-yl)piperazin-1-yl)prop-2-en-1-one] had an EC50 on K-Ras G12C [2] of 0.018 µM. This compound also returned a half-life at 1 μM in series [1] of 1.52 h.
On to `C=CC(=O)N1CCN(c2nc(OC[C@@H]3[C@@H]4C[C@@H]4CN3C)nc3cc(-c4nc(N)ccc4C(F)(F)F)c(Cl)cc23)CC1` [Example 78b, 1-(4-(7-(6-amino-3-(trifluoromethyl)pyridin-2-yl)-6-chloro-2-(((1R,2S,5S)-3-methyl-3-azabicyclo[3.1.0]hexan-2-yl)methoxy)quinazolin-4-yl)piperazin-1-yl)prop-2-en-1-one], for which the EC50 on K-Ras G12C [2] amounted to 0.04 µM.
Same read-out and setting: the figure for `C=CC(=O)N1CCN(c2nc(OCC3CCC(COC)N3C)nc3cc(-c4nc(N)ccc4C(F)(F)F)c(Cl)cc23)CC1` (centres unmarked) [Example 80, 1-(4-(7-(6-amino-3-(trifluoromethyl)pyridin-2-yl)-6-chloro-2-((5-(methoxymethyl)-1-methylpyrrolidin-2-yl)methoxy)quinazolin-4-yl)piperazin-1-yl)prop-2-en-1-one] is 0.071 µM; for `C=CC(=O)N1CCN(c2nc(OC[C@@H]3CCCN3C3COC3)nc3cc(-c4nc(N)ccc4C(F)(F)F)c(Cl)cc23)CC1` [Example 87, 1-[4-[7-[6-amino-3-(trifluoromethyl)-2-pyridyl]-6-chloro-2-[[(2S)-1-(oxetan-3-yl)pyrrolidin-2-yl]methoxy]quinazolin-4-yl]piperazin-1-yl]prop-2-en-1-one] it is 0.18 µM.
Same read-out and setting: under `C=CC(=O)N1CCN(c2nc(OCC3(N(C)C)CC3)nc3cc(-c4nc(N)ccc4C(F)(F)F)c(Cl)cc23)CC1` [Example 88, 1-(4-(7-(6-amino-3-(trifluoromethyl)pyridin-2-yl)-6-chloro-2-((1-(dimethylamino)cyclopropyl)methoxy)quinazolin-4-yl)piperazin-1-yl)prop-2-en-1-one] stands 0.24 µM; under `C=CC(=O)N1CCN(c2nc(OC[C@@H]3C[C@@H](F)CN3CCOC)nc3cc(-c4nc(N)ccc4C(F)(F)F)c(Cl)cc23)CC1` [Example 89, 1-[4-[7-[6-amino-3-(trifluoromethyl)-2-pyridyl]-6-chloro-2-[[(2S,4R)-4-fluoro-1-(2-methoxyethyl)pyrrolidin-2-yl]methoxy]quinazolin-4-yl]piperazin-1-yl]prop-2-en-1-one], 0.029 µM.
On the same count and under the same terms, under `C=CC(=O)N1CCN(c2nc(OC[C@@H]3C[C@@H](F)[C@H](C)N3C)nc3cc(-c4nc(N)ccc4C(F)(F)F)c(Cl)cc23)CC1` [Example 90, 1-[4-[7-[6-amino-3-(trifluoromethyl)-2-pyridyl]-6-chloro-2-[[(2S,4R,5S)-4-fluoro-1,5-dimethyl-pyrrolidin-2-yl]methoxy]quinazolin-4-yl]piperazin-1-yl]prop-2-en-1-one] stands 0.055 µM.
In the case of `C=CC(=O)N1CCN(c2nc(OC[C@@H]3CCCN3CCOC)nc3cc(-c4nc(N)ccc4C(F)(F)F)c(Cl)cc23)CC1` [Example 91, 1-[4-[7-[6-amino-3-(trifluoromethyl)-2-pyridyl]-6-chloro-2-[[(2S)-1-(2-methoxyethyl)pyrrolidin-2-yl]methoxy]quinazolin-4-yl]piperazin-1-yl]prop-2-en-1-one], the EC50 at K-Ras G12C [2] came out at 0.04 µM.
At K-Ras G12C [2], `C=CC(=O)N1CCN(c2nc(OC[C@@H]3C[C@@H](OC(F)F)CN3C)nc3cc(-c4nc(N)ccc4C(F)(F)F)c(Cl)cc23)CC1` [Example 92, 1-[4-[7-[6-amino-3-(trifluoromethyl)-2-pyridyl]-6-chloro-2-[[(2S,4R)-4-(difluoromethoxy)-1-methyl-pyrrolidin-2-yl]methoxy]quinazolin-4-yl]piperazin-1-yl]prop-2-en-1-one] displayed an EC50 of 0.018 µM. The half-life at 1 μM in series [1] was 3 h.
On K-Ras G12C [2], `C=CC(=O)N1CCN(c2nc(OC[C@@H]3CCCN3)nc3c(F)c(-c4nc(N)cc(C)c4C(F)(F)F)c(Cl)cc23)[C@@H](C)C1` [Example 93, 1-((3S)-4-(7-(6-amino-4-methyl-3-(trifluoromethyl)pyridin-2-yl)-6-chloro-8-fluoro-2-(((S)-pyrrolidin-2-yl)methoxy)quinazolin-4-yl)-3-methylpiperazin-1-yl)prop-2-en-1-one] had an EC50 of 0.13 µM.
Still for that read-out and setting: the figure for `C=CC(=O)N1CCN(c2nc(OCC3(C)C[C@@H](F)CN3C)nc3cc(-c4nc(N)ccc4C(F)(F)F)c(Cl)cc23)CC1` (stereo partly drawn) [Example 96, 1-[4-[7-[6-amino-3-(trifluoromethyl)-2-pyridyl]-6-chloro-2-[[(4R)-4-fluoro-1,2-dimethyl-pyrrolidin-2-yl]methoxy]quinazolin-4-yl]piperazin-1-yl]prop-2-en-1-one] is 0.022 µM.
